Patent US20240246920A1, “TRIAZOLE DERIVATIVES WITH ANTIFUNGAL ACTIVITY” (King's College London, priority 2020, published 2024)
Values after ≈ are worked out from the molar mass of the structure shown. Read-outs that look alike come from different tables or passages of the source.

Tests used:
[1] = tested on: Aspergillus carbonarius ATCC 8740; experiment: Aspergillus panel MIC; assay type: cell-based; settings: Table 8
Protocol: (§1) Starter cultures of fungal strains to be tested were grown in 3 mL of RPMI 2% glucose media incubated at 37° C. with shaking at 200 rpm overnight. The culture media used was 900 mL H2O; 10.4 g RPMI 1640 (with L-glutamine and a pH indicator but without bicarbonate); 34.5 g MOPS and 18 g glucose. The pH of the media was adjusted to 7.0 with 1 M sodium hydroxide.
(§2) Solutions of the compound to be tested were prepared by dissolving the compound in DMSO and subsequently into media to the desired concentrations. 200 μL of compound solution was then added to the wells of the 96-well plate using a serial dilution method row-by row of the plate to give a compound concentration gradient across the plate of from 128 μg/mL to 0.25 μg/mL. The last two rows of each plate were control rows containing the culture media alone and the media plus fungi.
(§3) The fungi starter cultures were diluted 1:10 in water in cuvettes. This was then further diluted to an optical density (OD600) of 0.01 in media. 100 μL of the fungi was added to each well giving a starting concentration of fungus of 0.5-5×10^5/mL. One species of fungus was used on each plate. The plates were then held at 37° C. for 24 hours.
(§4) A plate reader was used to measure growth in each well at OD530 nm and the MIC was determined for each test compound. The MIC is defined as the lowest concentration giving rise to inhibition of ≥50% of that of the drug-free control well containing the fungus and media.
(§5) The compound of Example 2 (which corresponds to compound number 2) was tested against a panel of Aspergillus strains using a method analogous to that described above for the Candida Panel.

[2] = tested on: Aspergillus fulavus ATCC 204304; experiment: Aspergillus panel MIC; assay type: cell-based; settings: Table 8
Protocol: as §1, §2, §3, §4, §5

[3] = tested on: Aspergillus fumigatus ATCC 1028; experiment: Aspergillus panel MIC; assay type: cell-based; settings: Table 8
Protocol: as §1, §2, §3, §4, §5

[4] = tested on: Aspergillus fumigatus ATCC 10894; experiment: Aspergillus panel MIC; assay type: cell-based; settings: Table 8
Protocol: as §1, §2, §3, §4, §5

[5] = tested on: Aspergillus fumigatus ATCC 13073; experiment: Aspergillus panel MIC; assay type: cell-based; settings: Table 8
Protocol: as §1, §2, §3, §4, §5

[6] = tested on: Aspergillus fumigatus ATCC 16424; experiment: Aspergillus panel MIC; assay type: cell-based; settings: Table 8
Protocol: as §1, §2, §3, §4, §5

[7] = tested on: Aspergillus fumigatus ATCC 204305; experiment: Aspergillus panel MIC; assay type: cell-based; settings: Table 8
Protocol: as §1, §2, §3, §4, §5

C. albicans NCPF3281 = experiment: Candida panel MIC, serial dilution in 96-well plates; assay type: cell-based, Candida albicans; settings: Candida albicans, NCPF3281; Table 4, common panel; 24 hours, ≥50% inhibition; read-out: MIC C. albicans NCPF3281
How it was run: (§6)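 Overnight starter cultures were diluted to OD600 0.01 and added to serially diluted compound (128 to 0.25 μg/mL) in MOPS-buffered RPMI with 2% glucose, pH 7.0, giving 0.5-5×10^5 cells/mL. After 24 h at 37 °C, OD530 was measured and the ≥50% inhibition endpoint taken as MIC.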

C. glabrata NCPF8018 = experiment: as above; assay type: cell-based, Candida glabrata; settings: Nakaseomyces glabratus
How it was run: (§7)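 MIC taken as lowest concentration inhibiting growth ≥50% relative to drug-free control, from OD530 after 24 hours at 37° C. Fungi at 0.5-5×10^5/mL were exposed to serially diluted compound in RPMI 1640/MOPS/2% glucose medium adjusted to pH 7.0.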

C. krusei NCPF3876 = experiment: microbe, parasite or virus in culture; assay type: cell-based, Candida krusei; settings: Pichia kudriavzevii
How it was run: as §7

C. parapsilosis NCPF3209 = experiment: microbe, parasite or virus in culture; assay type: cell-based, Candida parapsilosis; settings: Lodderomyces parapsilosis
How it was run: as §7

Candida auris TDG2211 = experiment: microbe, parasite or virus in culture; assay type: cell-based; settings: Candidozyma auris, TDG2211; Table 4, extended panel; 24 hours, ≥50% inhibition; read-out: MIC Candida auris TDG2211
How it was run: (§8)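 MIC = lowest concentration inhibiting growth ≥50% relative to drug-free control, read by OD530 nm after 24 h at 37° C. Medium: RPMI 1640/MOPS/2% glucose, pH 7.0. Inoculum 0.5-5×10^5/mL.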

Candida auris TDG2506 = experiment: microbe, parasite or virus in culture; assay type: cell-based; settings: Candidozyma auris, TDG2506; Table 4, extended panel; 24 hours, ≥50% inhibition; read-out: MIC Candida auris TDG2506
How it was run: as §8

C. auris TDG1912 = experiment: Candida panel MIC, serial dilution in 96-well plates; assay type: cell-based; settings: Candidozyma auris, TDG1912; Table 4; 24 hours, ≥50% inhibition; read-out: MIC C. auris TDG1912
How it was run: as §6

C. tropicalis NCPF8760 = experiment: as above; assay type: cell-based
How it was run: as §6

Candida auris TDG1102 = experiment: as above; assay type: cell-based; settings: Candidozyma auris, TDG1102; Table 4, extended panel; 24 hours, ≥50% inhibition; read-out: MIC Candida auris TDG1102
How it was run: as §6

Candida auris TDG2512 = experiment: as above; assay type: cell-based; settings: Candidozyma auris, TDG2512; Table 4, extended panel; 24 hours, ≥50% inhibition; read-out: MIC Candida auris TDG2512
How it was run: as §6

panel of Candida species = experiment: Candida panel MIC, statements on the whole panel; assay type: cell-based; settings: in words
Protocol: The minimum inhibitory concentration of test compounds were determined in a panel of Candida species (see Table 4 below), using the a serial dilution method in 96-well plates using the following protocol.
as §1, §2, §3, §4

C. auris 8971 = experiment: Candida panel MIC, serial dilution in 96-well plates; assay type: cell-based, Candida auris; settings: Candidozyma auris, 8971; Table 4, extended panel; 24 hours, ≥50% inhibition; read-out: MIC C. auris 8971
How it was run: as §8

C. auris 8977 = experiment: as above; assay type: cell-based, Candida auris; settings: Candidozyma auris, 8977; Table 4, extended panel; 24 hours, ≥50% inhibition; read-out: MIC C. auris 8977
How it was run: as §8

C. auris 8984 = experiment: as above; assay type: cell-based, Candida auris; settings: Candidozyma auris, 8984; Table 4, extended panel; 24 hours, ≥50% inhibition; read-out: MIC C. auris 8984
How it was run: as §8

[8] = NCPF8018, Table 4, common panel, 24 hours, ≥50% inhibition, read-out: MIC C. glabrata NCPF8018
[9] = NCPF3876, Table 4, common panel, 24 hours, ≥50% inhibition, read-out: MIC C. krusei NCPF3876
[10] = NCPF3209, Table 4, common panel, 24 hours, ≥50% inhibition, read-out: MIC C. parapsilosis NCPF3209
[11] = NCPF8760, Table 4, common panel, 24 hours, ≥50% inhibition, read-out: MIC C. tropicalis NCPF8760

Row | SMILES | MIC (C. albicans NCPF3281) | MIC (C. glabrata NCPF8018; [8]) | MIC (C. krusei NCPF3876; [9]) | MIC (C. parapsilosis NCPF3209; [10]) | MIC (Candida auris TDG2211) | MIC (Candida auris TDG2506) | MIC (C. auris TDG1912) | MIC (C. tropicalis NCPF8760; [11]) | MIC (Candida auris TDG1102) | MIC (Candida auris TDG2512) | Activity against Candida auris including resistant strains (panel of Candida species) | further results
1 | N#Cc1ccc(-c2ccc(NC3CCN(CC(O)(Cn4cncn4)c4ccc(F)cc4F)CC3)cc2)cc1 (stereo not drawn) [Compound number 2, 4′-((1-(2-(2,4-difluorophenyl)-2-hydroxy-3-(1H-1,2,4-triazol-1-yl)propyl)piperidin-4-yl)amino)-[1,1′-biphenyl]-4-carbonitrile] |  |  |  |  |  |  |  |  |  |  |  | Minimum inhibitory concentration Aspergillus carbonarius ATCC 8740 [1]: 0.25; Minimum inhibitory concentration Aspergillus fulavus ATCC 204304 [2]: 0.5; Minimum inhibitory concentration Aspergillus fumigatus ATCC 1028 [3]: 0.25; Minimum inhibitory concentration Aspergillus fumigatus ATCC 10894 [4]: 0.25; Minimum inhibitory concentration Aspergillus fumigatus ATCC 13073 [5]: ≤0.125; Minimum inhibitory concentration Aspergillus fumigatus ATCC 16424 [6]: ≤0.125; Minimum inhibitory concentration Aspergillus fumigatus ATCC 204305 [7]: ≤0.125
2 | N#Cc1ccccc1-c1ccc(NC2CCN(CC(O)(Cn3cncn3)c3ccc(F)cc3F)CC2)cc1 (stereo not drawn) [Example 5, 4′-((1-(2-(2,4-difluorophenyl)-2-hydroxy-3-(1H-1,2,4-triazol-1-yl)propyl)piperidin-4-yl)amino)-[1,1′-biphenyl]-2-carbonitrile] | 2 to 4 ng/mL (≈ 0.00389 to 0.00777 µM) | 125 ng/mL (≈ 0.243 µM) | 2 to 125 ng/mL (≈ 0.00389 to 0.243 µM) | 4 ng/mL (≈ 0.00777 µM) | 6 ng/mL (≈ 0.0117 µM) | 6 ng/mL (≈ 0.0117 µM) | 30 ng/mL (≈ 0.0583 µM) | 8 to 250 ng/mL (≈ 0.0155 to 0.486 µM) | ≤ 3 ng/mL | ≤ 3 ng/mL | highly active | 
3 | Cc1ccc(-c2ccc(NC3CCN(CC(O)(Cn4cncn4)c4ccc(F)cc4F)CC3)cc2)cc1 (stereo not drawn) [Example 3, 2-(2,4-Difluorophenyl)-1-(4-((4′-methyl-[1,1′-biphenyl]-4-yl)amino)piperidin-1-yl)-3-(1H-1,2,4-triazol-1-yl)propan-2-ol] | ≤ 0.98 ng/mL | 125 ng/mL (≈ 0.248 µM) | 4 to 16 ng/mL (≈ 0.00794 to 0.0318 µM) | 4 ng/mL (≈ 0.00794 µM) | 6 ng/mL (≈ 0.0119 µM) | 6 ng/mL (≈ 0.0119 µM) | 8 to 60 ng/mL (≈ 0.0159 to 0.119 µM) | 15 ng/mL (≈ 0.0298 µM) | ≤ 3 ng/mL | ≤ 3 ng/mL | highly active | MIC (C. glabrata NCPF8018; NCPF8018, read-out: MIC C. Glabrata NCPF8018): 125 ng/mL (≈ 0.248 µM); MIC (C. krusei NCPF3876; NCPF3876, read-out: MIC C. Krusei NCPF3876): 4 to 16 ng/mL (≈ 0.00794 to 0.0318 µM); MIC (C. parapsilosis NCPF3209; NCPF3209, read-out: MIC C. Parapsilosis NCPF3209): 4 ng/mL (≈ 0.00794 µM); MIC (C. tropicalis NCPF8760; NCPF8760, read-out: MIC C. Tropicalis NCPF8760): 15 ng/mL (≈ 0.0298 µM); MIC (C. auris 8971): 6 ng/mL (≈ 0.0119 µM); MIC (C. auris 8977): 6 ng/mL (≈ 0.0119 µM); MIC (C. auris 8984): 6 ng/mL (≈ 0.0119 µM)
